Results on five compounds are retold here after PubChem BioAssay AID1259407 (Chemical Carcinogenesis Research Information System (CCRIS), 2018).

Activity calls are given as the source filed them. The rule behind the calls is not given here.

The subject of the series is CCRIS mutagenicity, Ames/micronucleus/aberration tests. The experiment in a line: CCRIS mutagenicity studies. Conditions: Test System: AMES SALMONELLA TYPHIMURIUM
Setting [1] is: Strain/Indicator: TA97, Metabolic Activation: NONE, Method: PREINCUBATION
[2] abbreviates: Strain/Indicator: TA98, Metabolic Activation: NONE, Method: PREINCUBATION
Setting [3] is: Strain/Indicator: TA98, Metabolic Activation: RAT, LIVER, S-9, AROCLOR 1254 (10 OR 30%), Method: PREINCUBATION
The mark [4] stands for this setting: Strain/Indicator: TA100, Metabolic Activation: NONE, Method: PREINCUBATION
Setting [5] is: Strain/Indicator: TA100, Metabolic Activation: RAT, LIVER, S-9, AROCLOR 1254, Method: PREINCUBATION
Where [6] appears, read: Strain/Indicator: TA1535, Metabolic Activation: NONE, Method: PREINCUBATION

Take `O=C/C=C/c1ccco1`: the mutagenic call by setting is: (Strain/Indicator: TA97, Metabolic Activation: HAMSTER, LIVER, S-9, AROCLOR 1254 (10%), Method: PREINCUBATION) “inactive; negative”; (Strain/Indicator: TA97, Metabolic Activation: HAMSTER, LIVER, S-9, AROCLOR 1254 (30%), Method: PREINCUBATION) “inactive; negative”; under setting [1], “inactive; negative”; (Strain/Indicator: TA97, Metabolic Activation: RAT, LIVER, S-9, AROCLOR 1254 (10%), Method: PREINCUBATION) “inactive; negative”; (Strain/Indicator: TA97, Metabolic Activation: RAT, LIVER, S-9, AROCLOR 1254 (30%), Method: PREINCUBATION) “inactive; negative”; (Strain/Indicator: TA98, Metabolic Activation: HAMSTER, LIVER, S-9, AROCLOR 1254 (10 OR 30%), Method: PREINCUBATION) “inactive; negative”. Moreover, the mutagenic call under setting [2] is “inactive; negative”; the mutagenic call under setting [3] was “inactive; negative”; the mutagenic call (Strain/Indicator: TA100(NR), Metabolic Activation: NONE, Method: PREINCUBATION) was “inactive; negative”; the mutagenic call (Strain/Indicator: TA100, Metabolic Activation: HAMSTER, LIVER, S-9, AROCLOR 1254 (10%), Method: PREINCUBATION) was “inactive; negative”; the mutagenic call (Strain/Indicator: TA100, Metabolic Activation: HAMSTER, LIVER, S-9, AROCLOR 1254 (30%), Method: PREINCUBATION) was “inactive; negative”; the mutagenic call under setting [4] is “inactive; negative”. The mutagenic call is, setting by setting: (Strain/Indicator: TA100, Metabolic Activation: RAT, LIVER, S-9, AROCLOR 1254 (10%), Method: PREINCUBATION) “inactive; negative”; (Strain/Indicator: TA100, Metabolic Activation: RAT, LIVER, S-9, AROCLOR 1254 (30%), Method: PREINCUBATION) “inactive; negative”; under setting [5], “inactive; negative”; (Strain/Indicator: TA1535, Metabolic Activation: HAMSTER, LIVER, S-9, AROCLOR 1254 (10%), Method: PREINCUBATION) “inactive; negative”; (Strain/Indicator: TA1535, Metabolic Activation: HAMSTER, LIVER, S-9, AROCLOR 1254 (30%), Method: PREINCUBATION) “inactive; negative”; under setting [6], “inactive; negative”. Further, the mutagenic call reads like this: (Strain/Indicator: TA1535, Metabolic Activation: RAT, LIVER, S-9, AROCLOR 1254 (10%), Method: PREINCUBATION) “inactive; negative”; (Strain/Indicator: TA1535, Metabolic Activation: RAT, LIVER, S-9, AROCLOR 1254 (30%), Method: PREINCUBATION) “inactive; negative”.
For the compound `Cc1cc2ncccc2c2ncn(C)c12`, the mutagenic call is, setting by setting: under setting [2], “inactive; negative”; (Strain/Indicator: TA98, Metabolic Activation: RAT, LIVER, S-9, AROCLOR 1254, Method: PREINCUBATION) “inactive; negative”; under setting [4], “inactive; negative”; under setting [5], “inactive; negative”.
Take `Clc1ccc2ccccc2c1`: the mutagenic call (Strain/Indicator: TA97, Metabolic Activation: HAMSTER, LIVER, S-9, AROCLOR 1254 (10 OR 30%), Method: PREINCUBATION) is “inactive; negative”; the mutagenic call under setting [1] was “inactive; negative”; the mutagenic call (Strain/Indicator: TA97, Metabolic Activation: RAT, LIVER, S-9, AROCLOR 1254 (10 OR 30%), Method: PREINCUBATION) was “inactive; negative”; the mutagenic call (Strain/Indicator: TA98, Metabolic Activation: HAMSTER, LIVER, S-9, AROCLOR 1254 (10%), Method: PREINCUBATION) was “inactive; negative”; the mutagenic call (Strain/Indicator: TA98, Metabolic Activation: HAMSTER, LIVER, S-9, AROCLOR 1254 (30%), Method: PREINCUBATION) is “inactive; negative”; the mutagenic call under setting [2] is “inactive; negative”. The mutagenic call under setting [3] was “inactive; negative”; the mutagenic call (Strain/Indicator: TA100, Metabolic Activation: HAMSTER, LIVER, S-9, AROCLOR 1254 (10 OR 30%), Method: PREINCUBATION) was “inactive; negative”; the mutagenic call under setting [4] is “inactive; negative”; the mutagenic call (Strain/Indicator: TA100, Metabolic Activation: RAT, LIVER, S-9, AROCLOR 1254 (10 OR 30%), Method: PREINCUBATION) was “inactive; negative”; the mutagenic call (Strain/Indicator: TA1535, Metabolic Activation: HAMSTER, LIVER, S-9, AROCLOR 1254 (10 OR 30%), Method: PREINCUBATION) is “inactive; negative”; the mutagenic call under setting [6] is “inactive; negative”. Also, under “Strain/Indicator: TA1535, Metabolic Activation: RAT, LIVER, S-9, AROCLOR 1254 (10 OR 30%), Method: PREINCUBATION”, the mutagenic call was “inactive; negative”.
Regarding `Cc1c(N)c(=O)n(-c2ccccc2)n1C`, the mutagenic call is “active; positive” (Strain/Indicator: TA97, Metabolic Activation: NONE, Method: STANDARD PLATE); “active; positive” (Strain/Indicator: TA97, Metabolic Activation: RAT, LIVER, S-9, AROCLOR 1254, Method: STANDARD PLATE); “active; positive” (Strain/Indicator: TA97A, Metabolic Activation: RAT, LIVER, S-9, AROCLOR 1254, Method: STANDARD PLATE); “inactive; negative” (Strain/Indicator: TA98, Metabolic Activation: NONE, Method: STANDARD PLATE); “inactive; negative” (Strain/Indicator: TA98, Metabolic Activation: RAT, LIVER, S-9, AROCLOR 1254, Method: STANDARD PLATE); “inactive; negative” (Strain/Indicator: TA100, Metabolic Activation: NONE, Method: STANDARD PLATE). For the same compound, the mutagenic call was “inactive; negative” (Strain/Indicator: TA100, Metabolic Activation: RAT, LIVER, S-9, AROCLOR 1254, Method: STANDARD PLATE); “inactive; negative” (Strain/Indicator: TA102, Metabolic Activation: NONE, Method: STANDARD PLATE); “inactive; negative” (Strain/Indicator: TA102, Metabolic Activation: RAT, LIVER, S-9, AROCLOR 1254, Method: STANDARD PLATE); “inactive; negative” (Strain/Indicator: TA104, Metabolic Activation: NONE, Method: STANDARD PLATE); “inactive; negative” (Strain/Indicator: TA104, Metabolic Activation: RAT, LIVER, S-9, AROCLOR 1254, Method: STANDARD PLATE); “inactive; negative” (Strain/Indicator: TA1537, Metabolic Activation: NONE, Method: STANDARD PLATE). Under “Strain/Indicator: TA1537, Metabolic Activation: RAT, LIVER, S-9, AROCLOR 1254, Method: STANDARD PLATE”, the mutagenic call is “inactive; negative”.
On to `O=C(O)c1cccnc1Nc1cccc(C(F)(F)F)c1`, for which the mutagenic call (Strain/Indicator: TA1535, Metabolic Activation: NONE, Method: STANDARD PLATE) is “inactive; negative”.
